The target in the test is T1, CTP synthetase (CTPS) (Trypanosoma brucei, UniProt Q4GZ95).
T1 construct: gene TB927.1.1240
The experiment in a line: coupled spectrophotometric enzyme assay (pyruvate kinase/lactate dehydrogenase), […] min pre-incubation on ice. The class given is biochemical.

T1 sequence (Q4GZ95 entry or part of it): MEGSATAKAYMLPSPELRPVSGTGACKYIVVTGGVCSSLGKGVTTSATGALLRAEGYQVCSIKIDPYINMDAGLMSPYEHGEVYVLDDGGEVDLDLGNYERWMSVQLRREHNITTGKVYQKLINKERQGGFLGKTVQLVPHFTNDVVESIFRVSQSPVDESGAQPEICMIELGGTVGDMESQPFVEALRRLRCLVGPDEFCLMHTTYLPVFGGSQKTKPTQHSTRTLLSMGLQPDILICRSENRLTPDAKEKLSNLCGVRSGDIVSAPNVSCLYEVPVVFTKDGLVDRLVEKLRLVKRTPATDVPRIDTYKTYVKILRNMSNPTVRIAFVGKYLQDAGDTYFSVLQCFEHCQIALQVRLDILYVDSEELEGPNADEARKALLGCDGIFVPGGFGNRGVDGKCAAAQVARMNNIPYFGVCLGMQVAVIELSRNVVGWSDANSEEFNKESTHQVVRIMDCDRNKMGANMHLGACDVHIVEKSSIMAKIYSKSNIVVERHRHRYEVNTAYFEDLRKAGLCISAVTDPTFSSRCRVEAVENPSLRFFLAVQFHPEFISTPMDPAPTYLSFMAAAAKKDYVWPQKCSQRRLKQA

`N[C@H](C(=O)O)[C@@H]1CC(Cl)=NO1` [compound 1, Acivicin] had an IC50 of 320 ± 25 nM.

For the compound `N[C@H](C(=O)O)[C@@H]1CC(Br)=NO1` [compound 2, (αS,5S)-α-amino-3-bromo-4,5-dihydroisoxazol-5-yl acetic acid], the IC50 was 98 ± 10 nM.

A word on the IC50: it is the concentration needed to halve the response being measured.

Values taken from publication PMC3504386 (Chemmedchem, 2010).
